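All cell lines were grown in 96-well plates and treated with compound for 48 hours. TGI: total growth inhibition.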
Experiments:
Assay in all cases: DTP human tumour cell line panel, 48 h
ACHN renal = tested on: ACHN renal
KM12 colon = tested on: KM12 colon
LOX IMVI melanoma = tested on: LOX IMVI melanoma
MALME-3M melanoma = tested on: MALME-3M melanoma
OVCAR-3 ovarian = tested on: OVCAR-3 ovarian
OVCAR-8 ovarian = tested on: OVCAR-8 ovarian
SK-MEL-28 melanoma = tested on: SK-MEL-28 melanoma
SK-MEL-5 melanoma = tested on: SK-MEL-5 melanoma
SNB-75 CNS = tested on: SNB-75 CNS
BT-549 breast = tested on: BT-549 breast

| SMILES | TGI (ACHN renal) [µM] | TGI (KM12 colon) [µM] | TGI (LOX IMVI melanoma) [µM] | TGI (MALME-3M melanoma) [µM] | TGI (OVCAR-3 ovarian) [µM] | TGI (OVCAR-8 ovarian) [µM] | TGI (SK-MEL-28 melanoma) [µM] | TGI (SK-MEL-5 melanoma) [µM] | TGI (SNB-75 CNS) [µM] | TGI (BT-549 breast) [µM] |
| --- | --- | --- | --- | --- | --- | --- | --- | --- | --- | --- |
| CN(C)CC1CCC(CN(C)C)C1=O (stereo not given) | 11.1 | 26.7 | 14.4 | 3.67 | 7.24 | 10.3 | 36.5 | 15.9 | 37.2 |  |
| CCCCCCCCCc1nn2c(Cc3ccccc3)nnc2s1 | 40 | 57.7 |  |  | 37 | 29.8 | 33.8 | 30.1 | 65.4 | 33.6 |
| CCOP(=O)(/C=C\n1ccc(N)nc1=O)OCC | > 100 | > 100 | > 100 |  | > 100 | > 100 | > 100 | > 100 | > 100 | > 100 |
| CN(C)CCC(=O)/C=C\c1ccccc1 | 32.5 | 29.2 | 29.6 | 32.8 | 32.2 | 37 | 30.9 | 31.8 | > 100 |  |
| O=C1CSC2=NC3=C(COC/C3=C\c3ccc(Br)cc3)C(c3ccc(Br)cc3)N12 (stereo not given) | > 100 | > 100 | > 100 |  | > 100 | > 100 |  | > 100 | > 100 | > 100 |
| COc1ccc(C2c3cc4c(cc3OC(N3CCOCC3)C2C)OCO4)c(OC)c1OC (stereo not given) | 64.9 | 30.8 | 33.9 |  | 45.6 | > 100 | 82 | 23.1 |  |  |
| Oc1[nH]c2ccccc2c1N=NC(=S)Nc1ccc(Cl)cc1 | > 100 | > 100 | > 100 | 54.7 | > 100 | 98.8 | > 100 | 63.4 | > 100 |  |
| COc1ccc(N(C(=O)Nc2ccc(Cl)c(Cl)c2)C2c3cccn3C(=O)N2c2ccc(Cl)c(Cl)c2)cc1 (stereo not given) | > 100 | > 100 | > 100 | > 100 |  | > 100 | > 100 | > 100 |  | > 100 |
| N#Cc1nc(NC(=O)c2ccccc2C(=O)O)c(C#N)[nH]1 | > 100 | > 100 | > 100 | > 100 | > 100 | > 100 | > 100 | > 100 | > 100 |  |
| COc1cc2c(c(O)c1OC)C(=O)C(Cc1ccc(O)cc1)CO2 (stereo not given) | > 100 | > 100 | > 100 | > 100 | 26.4 | > 100 | > 100 | 49 | 81.4 |  |

Source: PubChem BioAssay (NCI)
